Results reported in patent US20120034210A1, “COMPOSITIONS FOR POTENTIATING APOPOSIS SIGNALS IN TUMOUR CELLS” (INSTITUT BERGONIE, priority 2008, published 2012).
“Also recorded” adds a separate entry of the source. Peptide text beside a SMILES is read from it. * marks the point of attachment. Cbz = O=C(OCc1ccccc1)*

How the values were obtained:
[1] = test system: DISC macro-complex (Fas/FADD/Caspase-8); assay: DISC formation: Fas immunoprecipitation and Western blot; format: cell-based, human; details: for recruitment of FADD and DISC formation: non-permeant chelators lowering extracellular calcium
Experimental: Cells were incubated with 1 μg/ml APO1-3 for 30 minutes at 4° C. After washing, cells were incubated for 15 minutes at 4° C. (0 minutes) or at 37° C. (15 minutes) and then lysed for 30 minutes at 4° C. in a lysis buffer (25 mM HEPES pH 7.4, 1% Triton X-100, 150 mM NaCl, 2 mM EDTA, a cocktail including protease inhibitors (Sigma)). The lysed cells were then centrifugated for 15 minutes at 15000 rpm in order to eliminate genomic DNA, and the supernatant was kept. The sepharose beads which were coupled with protein A were added to the lysate and the mixture was incubated for 2 hours. The beads were recovered, washed intensively and the immunoprecipitated proteins were re-suspended in a denaturing and reducing buffer (0.01M Tris-HCl pH6.8, 10% glycerol (v/v), 85 mM sodium dodecyl sulfate (SDS), 5% (v/v) […] and 0.005% (w/v) bromophenol blue) then heated at 100° C. for 5 minutes. The samples were deposited in an acrylamide/Bisacrylamide gel and separated by electrophoresis. The proteins were transferred from the gel into a nitrocellulose membrane using a semi-dry medium transfer technique for 2 hours at constant amperage (0.8 mA/cm^2). […] After transfer, the nitrocellulose membrane was saturated with proteins for 30 minutes with a TBST buffer (50 mM Tris pH=8, 0.15M sodium chloride, 0.05% (v/v) Tween-20) containing 5% (w/v) skimmed powdered milk (TBSTM). After washing with TBST, the membrane was incubated for 2 hours with the primary antibody in TBST. The membrane was washed intensively then incubated for one hour with TBST containing the secondary peroxidase-coupled antibody. […] This solution contained a substrate metabolised by peroxidase to yield a luminescent compound, which allowed marking a radiographic film (Amersham).

[2] = test system: T and B leukemia/lymphoma cell lines and activated PBLs treated with FasL; assay: Fas/CD95-mediated cell death (MTT test); format: cell-based, human; details: for sensitivity to the CD95-mediated apoptotic signal (% cell death): down-modulation of extracellular calcium, T and B-cell lines, vs untreated
Experimental: 2 to 4.10^4 cells were deposited in wells in a 96-well plate. The cells were incubated, in the presence of the different reactants for the times specified, at 37° C. in a final volume of 100 or 200 μl.
The MTT test enabled to measure the activity of a mitochondrial enzyme, the dehydrogenase succinate which transforms MTT (or 3-(4,5-dimethylthiazol-2-yl)-2,5-diphenyltetrazolium) bromide originally yellow in colour and soluble, into blue formazan crystals, insoluble in aqueous phase. Upon completion of the different treatments, the living cells were quantified by adding in each well 15 μl PBS (Phosphate Buffered Saline) containing 5 mg/ml MTT. […] Spectrophotometric reading of absorbance was done at 570 nm. The measurement of the optical density is directly proportional to the number of living cells and the percentage of cell death was calculated with the following formula: 100-[(DO treated cells/DO non-treated cells)*100].

[3] = test system: Raji, BL2, Jurkat cell lines and activated PBL; assay: Apoptosis % by loss of mitochondrial membrane potential; format: cell-based, human; details: for induction of cell death via DR4/DR5 with calcium chelation: BL2 cell line, 24 h, prior incubation 15 minutes BAPTA-AM 1 μM
Experimental: 2 to 4.10^4 cells were deposited in wells in a 96-well plate. The cells were incubated, in the presence of the different reactants for the times specified, at 37° C. in a final volume of 100 or 200 μl. The apoptotic cells were identified in the cellular populations by measuring mitochondrial de-polarisation. […] These potentiometric probes allowed monitoring the variations of the mitochondrial membrane potential. […] Following cell treatment with the different drugs, the former were placed in the presence of TMRM or DIOC6 at 10 nM concentration, for 20 minutes at 37° C. then the fluorescence of the cells was analysed by flow cytometry.

Raji cells = assay: Raji B lymphoma tumour growth in Rag2-/-γ-/- mice; format: in vivo; details: Raji s.c.; single agent; Rituximab 2 mg/kg, Zoledronate 4 mg/kg
Experimental: The implantation of the tumours was done subcutaneously in Rag2−/−γ−/− mice flank aged from 5 to 7 weeks. Following implantation of the tumours, the mice were divided in groups of 8 to 10 animals for each treatment. The size of the tumour was assessed every day by measuring its width (w) and its length (I). Its volume was calculated according to the formula: V=lw^2/2. At the end of the experiment, the animals were sacrified, the tumour weight was measured.
From 10^6 Raji cells were implanted subcutaneously in mice flank. The effects of Rituximab alone, of Zoledronate alone, are assessed on the growth of tumours. Rituximab (2 mg/kg) was delivered 3 times a week, Zoledronate was delivered 1 time a week.

[4] = test system: intracellular calcium concentration; assay: Intracellular Ca2+ concentration, indo-1 (micro)spectrofluorimetry; format: cell-based, human
Experimental: Principle: [Ca^2+]i was measured by microspectrofluorimetry using a calcium sensitive fluorescent probe: indo-1. When excited at 360 nm wavelength, the so-called monoexcitation/double emission indo-1 probe transmitted back in a spectrum ranging from 400 to 500 nm. Binding of Ca^2+ to indo-1 caused displacement of the emission spectrum after excitation. The emission maximum in the unbound form was located around 480 nm. The emission of the complexed form was around 405 nm. An increase of calcium concentration thus caused the emission to increase to 405 nm and the emission to decrease to 480 nm. The ratio of both fluorescence intensities allowed to be independent from the quantity of the probe and to determine the [Ca^2+]i according to the Grynkiewicz equation:
[Ca^2+]i(nM)=Kd.β×(R−Rmin)/(Rmax−R)
Rmax, Rmin and Kd. β were determined by combining electrophysiology (patch clamp) and spectrofluorimetry. Rmax was determined by placing in the patch pipette a medium containing 10 mM CaCl2. Rmin was obtained by placing as an intrapipette solution a calcium-deprived medium (10 mM EGTA).
The cells were then rinsed with HBSS (800 rpm centrifugation for 2 minutes) and placed in an observation chamber on a glass coverslip. […] The excitation light is supplied by a Xenon lamp (100W). […] The substances to be tested were applied using a glass pipette positioned at some twenty μm of the studied cell and connected to a pneumatic system.
The principle as well as the loading of the cells were identical with the measurement on single cells. In such a case, approx. 40,000 cells were placed in a quartz tub under constant agitation. The tub was then placed in a Hitachi spectrofluorimeter whereof the excitation monochromator was set to 350 nm. […] The signals were transmitted to a computer via an analogue/digital converter. So as to be able to apply the Grynkiewicz equation (see above) and translate the fluorescence ratios measured in calcium values, the calibration parameters were entered into the software. The substances to be tested were applied directly in the tube under constant agitation.

O=C(O)CN(CC(=O)O)c1ccccc1OCCOc1ccccc1N(CC(=O)O)CC(=O)O [BAPTA, 1,2-bis(o-aminophenoxy)ethane-N,N,N′,N′-tetraacetic acid]
recruitment of FADD and DISC formation ([1]; H9 cells, CD95 stimulation): enhanced the recruitment of FADD and the DISC formation; also recorded: enhanced recruitment of FADD as well as enhanced DISC formation | sensitivity to the CD95-mediated apoptotic signal (% cell death) [2]: increased the sensitivity of T and B-cell lines to the CD95-mediated apoptotic signal

O=C(O)CN(CCOCCOCCN(CC(=O)O)CC(=O)O)CC(=O)O [EGTA, glycol-bis(2-aminoethylether)-N,N,N′,N′-tetraacetic acid]
recruitment of FADD and DISC formation ([1]; H9 cells, CD95 stimulation): enhanced the recruitment of FADD and the DISC formation; also recorded: enhanced recruitment of FADD as well as enhanced DISC formation | sensitivity to the CD95-mediated apoptotic signal (% cell death) [2]: increased the sensitivity of T and B-cell lines to the CD95-mediated apoptotic signal

CC(C)C[C@@H](C=O)NC(=O)[C@H](CC(C)C)NC(=O)[C@H](CC(C)C)NC(=O)OCc1ccccc1 [MG132] (Cbz-Leu-Leu-Leu-aldehyde)
induction of cell death via DR4/DR5 with calcium chelation [3]: potentiated by calcium chelation

Clc1ccc(C(c2ccc(Cl)cc2)n2cc[n+](CC(OCc3ccc(Cl)cc3Cl)c3ccc(Cl)cc3Cl)c2)cc1 (stereo not shown) [calmidazolium]
effect on CD95-mediated apoptotic signal ([2]; calmodulin antagonist or CaMKII inhibitory peptide): did not alter the CD95-mediated apoptotic signal

CNCCC(Oc1ccc(C(F)(F)F)cc1)c1ccccc1 (stereo not shown) [fluoxetine]
induction of cell death via DR4/DR5 with calcium chelation [3]: potentiated by calcium chelation

C[C@H](CCC(=O)O)C[C@H](C)C[C@H](C)C(=O)/C=C(\O)[C@H](C)C[C@H](C)C/C=C/[C@@H](C)[C@@H](O)[C@@H](C)[C@@H](O)C[C@@H]1CC[C@@](C)([C@H]2CC[C@@](C)([C@@H](C)O)O2)O1 [ionomycine]
DISC formation / FADD recruitment upon CD95 stimulation ([1]; H9, Jurkat, activated PBTs, non-cytotoxic concentrations, vs untreated cells): prevented the recruitment of FADD to CD95 and the DISC formation; also recorded: absence of FADD recruitment and DISC formation | formation of the DISC macro-complex ([1]; H9 cells, BAPTA-AM 1-10 μM or ionomycine 1 μM pre-incubation, then anti-Fas APO1-3 1 μg/ml 15 min 37° C., vs untreated cells): interfered with the formation of the DISC complex | FADD binding and activation of caspase-8 ([1]; H9 cells, ionomycine 1 μM, anti-Fas APO1-3): decreased the FADD binding and the activation of caspase-8

Oc1ccc(C=Cc2cc(O)cc(O)c2)cc1 [resveratrol]
induction of cell death via DR4/DR5 with calcium chelation [3]: potentiated by calcium chelation

C1CCC[C@H]2CCCN3CC[C@@H](CCCCCC[C@@H]4CCCN5CC[C@@H](CC1)O[C@@H]45)O[C@@H]23 [xestospongin C]
FADD binding to CD95 ([1]; IP3-R antagonist, CD95 stimulation): significantly promoted FADD binding to CD95; also recorded: significant increase in FADD binding to CD95

Rituximab: anti-CD20 monoclonal antibody
death signalling and apoptosis induced by Rituximab in low calcium medium ([3]; Raji, defined medium 0.5 mM vs 4 mM calcium): allowed potentiating the death signalling and apoptosis | cell death signal induced by Rituximab with added extracellular calcium ([3]; Raji, medium 3 mM vs 0.8 mM calcium): inhibited the cell death signal | tumour mass vs vehicle (Raji cells): not significantly affected

B1: CD95L: soluble CD95 ligand (Fas ligand), gp190-CD95L generated by Legembre et al. (protein, UniProt P48023 103-281, looked up)
extracellular domain: QLFHLQKELAELRESTSQMHTASSLEKQIGHPSPPPEKKELRKVAHLTGKSNSRSMPLEWEDTYGIVLLSGVKYKKGGLVINETGLYFVYSKVYFRGQSCNNLPLSHKVYMRNSKYPQDLVMMEGKMMSYCTTGQMWARSSYLGAVFNLTSADHLYVNVSELSLVNFEESQTFFGLYKL
modifications: extracellular domain gp190 fusion
intracellular calcium peak upon CD95L ([4]; H9 and Jurkat, rapid and transient, basal level 100 to 150 nM): up to 700 nM | calcium response to CD95L ([4]; Jurkat CD95-Q257K vs parental cell line): the calcium response remained unaltered | increase in [Ca2+]i upon CD95L ([4]; cells devoid of FADD, caspase-8 or caspase-8 and -10): did not display any modification of the increase in [Ca^2+]i

B2: TRAIL: soluble recombinant human TRAIL (TNF-related Apoptosis-Inducing Ligand), binds DR4 or DR5 (protein, UniProt P50591 39-281, looked up)
extracellular domain: TNELKQMQDKYSKSGIACFLKEDDSYWDPNDEESMNSPCWQVKWQLRQLVRKMILRTSEETISTVQEKQQNISPLVRERGPQRVAAHITGTRGRSNTLSSPNSKNEKALGRKINSWESSRSGHSFLSNLHLRNGELVIHEKGFYYIYSQTYFRFQEEIKENTKNDKQMVQYIYKYTSYPDPILLMKSARNSCWSKDAEYGLYSIYQGGIFELKENDRIFVSVTNEHLIDMDHEASFFGAFLVG
modifications: extracellular domain
induction of cell death via DR4/DR5 with calcium chelation [3]: potentiated by calcium chelation
